Source: US5593960A, “Cyclic heptapeptide anti-inflammatory agent” (The Regents of the University of California, priority 1995, dated 1997)

Test system: phorbol-induced inflammation (edema) of mouse ears
Assay: Inhibition of Mouse Ear Edema - Standard Protocol (topical, PMA-induced)
Type: in vivo
Settings: for Inhibition of mouse ear edema: relative to PMA control
Experimental: Cyclomarin-A was tested by measuring inhibition of phorbol-induced inflammation (edema) of mouse ears. […] The compound is topically applied in acetone to the inside pinnae of the ears of mice in a solution containing the edema-causing irritant, i.e. phorbol 12-myristate 13-acetate (PMA). PMA alone (2 microgram per ear) or in combination with varying amounts of cyclomarin-A was applied to the left ears of (5 mice per treatment group). Acetone was applied to all right ears. After a 3-hour and 20-minute incubation at 23° C., the mice were sacrificed, the ears removed and bores taken and weighed. Edema was measured by subtracting the weight of the right ear (acetone control) from the weight of the left ear (treated). The results were recorded as a percent decrease (inhibition) or percent increase (potentiation) in edema relative to the PMA control group edema.

cyclomarin-A
Inhibition of mouse ear edema (5 ug/ear with PMA 2 microgram per ear): 3.0%
Inhibition of mouse ear edema (10 ug/ear with PMA 2 microgram per ear): 39.0%
Inhibition of mouse ear edema (25 ug/ear with PMA 2 microgram per ear): 57.0%
Inhibition of mouse ear edema (50 ug/ear with PMA 2 microgram per ear): 88.0%
topical anti-inflammatory activity (general statement): exhibit topical anti-inflammatory activity
